“And” between values parts separate entries of the source, which are not always exact repeats. Identical values can stand only once. “Also recorded” adds a separate entry of the source.
Columns and labels:
[1] = tested on: mouse merlin-null Schwann cells; test: MultiTox-Fluor cell viability assay with merlin-null Schwann cells (NF2-MTC)
Method: To ascertain whether this cell line was amenable to a HTS platform, the present inventors tested cell adherence and growth on several types of 384-well plates. Wells were seeded at varying cell densities (2,500-20,000 cells/well) and the ratio of live:dead cells was measured 24 hours later using the MultiTox-Fluor Multiplex Cytotoxicity Assay (Promega). This assay uses fluorescent probes to measure protease activities from live and dying cells. […] Therefore, the DMSO concentration for screening will be maintained at 0.5%.

[2] = tested on: mouse merlin-null Schwann cells; test: Violet Ratiometric membrane asymmetry / dead cell apoptosis flow cytometry assay; type: cell-based; settings: 24 hours
Method: (§1) FIGS. 10 A-C. Phenotypic Apoptosis Assays. (A). Merlin-null Schwann cells in a 384-well format were incubated with the indicated compounds for 8 hours. Caspase-3/7 activity was measure with Apo-ONE Homogeneous Assay (Promega). n=32 wells. (B). Merlin-null Schwann cells in a 6-well format were treated with compounds (10 uM) for 24 hours. Membrane asymmetry was detected with Violet Ratiometric assay and read on a BD Cantos II flow cytometer. (C). Population distribution for B is shown.
In yet another aspect, compounds may be identified which induce programmed cell death or inhibit proliferation of Merlin-null Schwann cells. Merlin-pathway assays may be conducted to identify the subset of compounds that modulate the activity of known merlin pathways. The effector caspase cascade is activated in many extrinsic and intrinsic cell death pathways^29. […] The effect of compounds on caspase-3 activity can be measured by first lysing the cells and centrifuging to pellet the debris. […] Enzyme activity may be measured on an Envision plate reader at Ex400 nm/Em505 nm. The enzyme activity may be calculated from a standard curve generated using recombinant caspase-3 enzyme (R&D System, Inc.) and expressed as fold-increase in activity. […] Transfer of phosphatidylserine and phosphatidylethanolamine from the inner to the outer leaflet of the plasma membrane changes the membrane potential that is detected by F2N12S. […]

caspase 3/7 activity = test: Caspase-3/7 activity (Apo-ONE Homogeneous Assay) in merlin-null Schwann cells; type: cell-based, mouse; settings: for mechanism of apoptotic death in context of the Apo-One assay result: 384-well format, 8 hours
Method: as §1
In yet another aspect, compounds may be identified which induce programmed cell death or inhibit proliferation of Merlin-null Schwann cells. Merlin-pathway assays may be conducted to identify the subset of compounds that modulate the activity of known merlin pathways. The effector caspase cascade is activated in many extrinsic and intrinsic cell death pathways^29. The CPCCG has an established HTS assay that measures caspase-3 activity based on the cleavage and enzymatic degradation of a fluorescent substrate containing the amino acid motif DEVD (DEVD-7-amino-4-trifluoromethyl coumarin, DEVD-AFC). Briefly, Merlin-null Schwann cells may be dispensed and test compounds added, and incubated as described for the primary screening assay. The effect of compounds on caspase-3 activity can be measured by first lysing the cells and centrifuging to pellet the debris. Next, 20 μl of 2× reaction buffer may be added, followed by 1 μL, DTT (0.01M final). Finally, 1uL of DEVD-AFC may be added and the plate may be incubated at 37° C. for 1.5 h. Enzyme activity may be measured on an Envision plate reader at Ex400 nm/Em505 nm. The enzyme activity may be calculated from a standard curve generated using recombinant caspase-3 enzyme (R&D System, Inc.) and expressed as fold-increase in activity. […] Transfer of phosphatidylserine and phosphatidylethanolamine from the inner to the outer leaflet of the plasma membrane changes the membrane potential that is detected by F2N12S. […]

cofilin phosphorylation = test: Cofilin phosphorylation in mouse Schwann cells (summary statement); type: cell-based
[3] = tested on: mouse merlin-null Schwann cells; test: BrdU/7-AAD flow cytometry assay; type: cell-based
Method: (§2) FIGS. 11A-D. Phenotypic Proliferation Assays. (A) Merlin-null Schwann cells (384-well format) were treated with the indicated compounds and concentrations for 24 hours and labeled with EdU during the last 9 hours. Incorporation of EdU into S-phase cells was read on a Biotek H1 Hybrid reader. (B) The plate was also imaged with a Trophos high resolution fluorescence Plate Runner. (C). […] The cell population profile is shown and was analyzed using the ModFit program. (D). Merlin-null Schwann cells were grown as in C but were labeled with BrdU during the final 3 hours of treatment then stained with 7AAD. The distribution of BrdU- and 7AAD-labelled cells is shown and was analyzed with Diva program. The BD Cantos II flow cytometer was used above.
In yet another aspect, identification of compounds that affect proliferation of Merlin-null mouse Schwann cells can be performed by conducting a Click-iT EdU Microplate Assay (Life Technologies) in the 384 well-plate format and then follow-up with BrdU/7AAD and propidium iodide flow cytometer assays. […] The EdU-Click-iT assay uses a 2-step procedure to identify cells in the S-phase of the cell cycle. EdU (5-ethynyl-2′-deoxyuridine) is a DNA analog that has been modified with an alkyne and is incorporated by cells in S phase. It reacts with Alexa-Fluor-Oregon green azide in the presence of a copper solution to form a covalent bond. Fluorescence emission is measured on a Hybrid HT plate reader (FIG. 11A) as well as on a Trophos Plate RUNNER HD that captures images of the wells (FIG. 11B). This allows confirmatory cell counts to be obtained. Cell cycle profiles were collected using propidium iodide (PI) labeling of log-phase growing Merlin-null Schwann cells (FIG. 11C). The results were confirmed by acquiring the ratio of BrdU-positive to total 7AAD-labelled cells in an independent assay (FIG. 11D).

[4] = tested on: mouse merlin-null Schwann cells; test: Crystal Violet cell number assay; type: cell-based
[5] = tested on: mouse merlin-null Schwann cells; test: Propidium iodide flow cytometry cell cycle assay; type: cell-based
Method: as §2
In yet another aspect, identification of compounds that affect proliferation of Merlin-null mouse Schwann cells can be performed by conducting a Click-iT EdU Microplate Assay (Life Technologies) in the 384 well-plate format and then follow-up with BrdU/7AAD and propidium iodide flow cytometer assays. […] The EdU-Click-iT assay uses a 2-step procedure to identify cells in the S-phase of the cell cycle. […] Fluorescence emission is measured on a Hybrid HT plate reader (FIG. 11A) as well as on a Trophos Plate RUNNER HD that captures images of the wells (FIG. 11B). […]

[6] = tested on: cofilin phosphorylation (substrate for LIMK); test: Western blot of cofilin phosphorylation in normal rat Schwann cells; type: cell-based; settings: 6 hours
[7] = 5 μM, 24 hr, BrdU for the last 3 hr

In the case of CO[C@H]1C[C@@H]2CC[C@@H](C)[C@@](O)(O2)C(=O)C(=O)N2CCCC[C@H]2C(=O)O[C@H]([C@H](C)C[C@@H]2CC[C@@H](O)[C@H](OC)C2)CC(=O)[C@H](C)/C=C(\C)[C@@H](O)[C@@H](OC)C(=O)[C@H](C)C[C@H](C)/C=C/C=C/C=C/1C [rapamycin, Rapamycin], the “viability of cells, % of the DMSO control” value ([1]; 50 μM rapamycin, 384-well plate, 5,000 cells/well) is reported as 20+/−1.4%.
In the case of FC(F)(F)c1ccc(/C=C/c2nc(COc3ccc(CCCCn4ccnn4)cc3)co2)cc1 [TAK 165], the “MTC viability compared to DMSO control (in words)” value ([1]; TAK 165 50 nM, positive control) is reported as “effective in reducing MTC viability”.
COc1ccc2c(c[n+](C)c3c4cc5c(cc4ccc23)OCO5)c1OC.[Cl-] [CHE, cheleryithrine chloride] was tested, and the “apoptotic death (Q1+Q3), share of Merlin-null Schwann cells” value ([2]; 10 uM, 6-well format, flow cytometer) was 93%.
With CC(C)C(=O)Nc1ncc(-c2cc(C(F)F)nn2-c2c(Cl)cccc2Cl)s1 [BMS-5] the “mechanism of apoptotic death in context of the Apo-One assay result” value (caspase 3/7 activity) was “caspase3/7-independent”, the “difference in caspase 3/7 activity versus untreated or DMSO controls” value (caspase 3/7 activity; 8 hours incubation, increasing doses) was “no significant difference” and the “cofilin phosphorylation in mouse Schwann cells (in words)” value (cofilin phosphorylation) was “reduced cofilin phosphorylation”. The “cells in G0/G1 and S phase” value [3, 7] was “massive depletion”, the “number of cells in G2/M” value [3, 7] was “moderate increase; also recorded: moderately increase” and the “MTC number / proliferation with increasing concentration (in words)” value ([1]; 24 hours, various inhibitor concentrations) was “inhibited proliferation; also recorded: dose-respondent inhibition”. For the same compound, the “MTC viability compared to DMSO control (in words)” value ([1]; BMS-5 5 μM, 24 hours) was “reduced MTC viability”, the EC50 ([1]; read-out: EC50: concentration that reduces the number of merlin-null Schwann cells by 50% of control, 24 hours, 96-well format, 32 replicates/concentration) was 1960 nM and ~2000 nM and the “change in the number of cells after 72 hours” value ([4]; 2 μM) was “no change”. The “cell number compared to untreated or DMSO controls” value ([4]; 1 and 2 μM, 72 hours) was “decrease in the cell number”, the “increase of cells in G2/M phase” value ([5]; 5 μM, 17 hr, Propidium Iodine staining) was “more than 100%” and the “cell cycle profile (PI labeling and BrdU profiles, in words)” value ([5]; 5 uM, 22 hours) was “accumulate in G2/M”. The “number of cells with plasma membrane asymmetry” value ([2]; 2 μM) was “does not significantly increase”, the IC50 ([6]; Western blot, read-out: amount needed to reduce cofilin phosphorylation by 50% of the untreated control) was 200 nM and the “cofilin phosphorylation (dose response, in words)” value ([6]; increasing BMS-5) was “reduces the amount of cofilin phosphorylation; also recorded: cofilin phosphorylation decreases”.
In the case of N#C/C(=C\c1ccc(-c2cc(Cl)ccc2Cl)o1)C(=O)Nc1cccc2ncccc12 [AGK2], the “mechanism of apoptotic death in context of the Apo-One assay result” value (caspase 3/7 activity) is reported as “caspase3/7-independent” and the “anti-proliferative effects on the cells” value ([3]; 24 hours of drug treatment, S-phase labelling for the final 3 hours) is reported as “did not reveal clear anti-proliferative effects”.

Reference: US9408832B2, “LIM kinasemodulating agents for neurofibromatoses therapy and methods for screening for same” (University of Central Florida Research Foundation, Inc., priority 2012, dated 2016)
